Data: patent publication US20250145665A1, “MACROCYCLIC PEPTIDES USEFUL AS MODULATORS OF TNF ALPHA” (Bristol-Myers Squibb Company, priority 2023, published 2025)
Starred links: 1 amine or outer side, 2 acyl side, 3 side chain; linkers in the order of their positions; H or OH if unused. Positions of bridges follow the written chain, without caps; N, C: chain ends. Non-standard residues stand in square brackets, D forms with d. Residues, ends and D or L forms follow the SMILES beside them. *: point of attachment. Bip(4'-NHCO-C6H4-3-CH2COOH) = N[C@@H](Cc1ccc(-c2ccc(NC(=O)c3cccc(CC(=O)O)c3)cc2)cc1)C(=O)O; Bip(4'-NHCO-C6H4-4-CH2COOH) = N[C@@H](Cc1ccc(-c2ccc(NC(=O)c3ccc(CC(=O)O)cc3)cc2)cc1)C(=O)O; Bip(4'-NH) = O=C([C@H](Cc1ccc(-c2ccc(N[*:3])cc2)cc1)N[*:1])[*:2]; dArg(ω-(3-HO-benzyl)) = N=C(NCCC[C@@H](N)C(=O)O)NCc1cccc(O)c1; Bip(4'-CONHMe) = CNC(=O)c1ccc(-c2ccc(C[C@H](N)C(=O)O)cc2)cc1; Indazole3carbonyl(1-CH2COOH) = O=C(O)Cn1nc(C(=O)*)c2ccccc21; Bip(4'-COOH) = N[C@@H](Cc1ccc(-c2ccc(C(=O)O)cc2)cc1)C(=O)O; Bip(4'-NHAc) = CC(=O)Nc1ccc(-c2ccc(C[C@H](N)C(=O)O)cc2)cc1; X7 = N=C(NCCC[C@@H](N[*:1])C(=O)[*:2])NCc1ccc2occc2c1; Ala(imidazol-2-yl) = N[C@@H](Cc1ncc[nH]1)C(=O)O; dArg(ω-Bn) = N=C(NCCC[C@@H](N)C(=O)O)NCc1ccccc1; Ala(morpholin-4-yl) = N[C@@H](CN1CCOCC1)C(=O)O; Phe(3-CONH2) = NC(=O)c1cccc(C[C@H](N)C(=O)O)c1; Bip = N[C@@H](Cc1ccc(-c2ccccc2)cc1)C(=O)O; Phe(4-NH2) = Nc1ccc(C[C@H](N)C(=O)O)cc1; Val(3-OH) = CC(C)(O)[C@H](N)C(=O)O; hhPhe = N[C@@H](CCCc1ccccc1)C(=O)O; 2Pal = N[C@@H](Cc1ccccn1)C(=O)O; Tic = O=C(O)[C@@H]1Cc2ccccc2CN1; 2Thi = N[C@@H](Cc1cccs1)C(=O)O; Cha = N[C@@H](CC1CCCCC1)C(=O)O; X20 = O=C(c1csc(-c2ccncc2)n1)*; Chg = N[C@H](C(=O)O)C1CCCCC1; Tle = CC(C)(C)[C@H](N)C(=O)O; Sar = CNCC(=O)O

molecular target: TNFα (Homo sapiens, UniProt P01375); assay: TNF-Induced HEK-Blue Assay; assay type: cell-based; settings: not given
Sequence (P01375 77-233 limits assumed): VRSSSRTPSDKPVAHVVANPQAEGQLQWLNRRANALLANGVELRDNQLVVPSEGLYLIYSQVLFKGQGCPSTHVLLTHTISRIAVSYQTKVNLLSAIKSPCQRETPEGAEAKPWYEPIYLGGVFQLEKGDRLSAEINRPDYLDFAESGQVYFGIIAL

Row | Structure (SMILES) | IC50
1 | CC[C@H](C)[C@@H]1NC(=O)[C@@H](CCCNC(=N)NCc2ccc3occc3c2)NC(=O)[C@H](CC(=O)O)NC(=O)[C@H](Cc2cnc[nH]2)NC(=O)CN(C)C(=O)[C@H](Cc2ccc(-c3ccc(NC(=O)c4nn(CC(=O)O)c5ccccc45)cc3)cc2)NC(=O)[C@H](Cc2ccc(-c3ccccc3)cc2)NC(=O)[C@H](CC2CCCCC2)NC(=O)CSC[C@@H](C(=O)NCC(N)=O)NC(=O)[C@H](CC(C)C)NC(=O)[C@H](Cc2cnc[nH]2)NC(=O)[C@H](C(C)C)NC(=O)[C@@H]2CCCN2C1=O [Example 479] ({CH2CO}-[Cha][Bip][Bip(4'-NH)](Indazole3carbonyl(1-CH2COOH))[Sar]HD[X7]IPVHLCG-NH2; thioether N-13) | < 50 nM
2 | CC(C)C[C@@H]1NC(=O)[C@H](Cc2ccc(O)cc2)NC(=O)[C@H](C(C)C)NC(=O)CN(C)C(=O)[C@H](C(C)C)NC(=O)[C@H](CCCNC(=N)N)NC(=O)[C@H](CC(=O)O)NC(=O)[C@@H]2CCCN2C(=O)CN(C)C(=O)[C@H](Cc2ccc(-c3ccccc3)cc2)NC(=O)[C@H](Cc2ccc(-c3ccccc3)cc2)NC(=O)[C@H](CC(N)=O)NC(=O)CSC[C@@H](C(=O)NCC(N)=O)NC1=O [Example 142] ({CH2CO}-N[Bip][Bip][Sar]PDRV[Sar]VYLCG-NH2; thioether N-13) | 200 to 2000 nM
3 | CC(C)C[C@@H]1NC(=O)[C@H](Cc2ncc[nH]2)NC(=O)[C@H](C(C)C)NC(=O)[C@@H]2CCCN2C(=O)[C@H](C(C)C)NC(=O)[C@@H](CCCNC(=N)NCc2cccc(O)c2)NC(=O)[C@H](CC(=O)O)NC(=O)[C@H](Cc2ccccn2)NC(=O)CN(C)C(=O)[C@H](Cc2ccc(-c3ccc(NC(=O)c4nn(CC(=O)O)c5ccccc45)cc3)cc2)NC(=O)[C@H](Cc2ccc(-c3ccc(C(=O)O)cc3)cc2)NC(=O)[C@H](CC2CCCCC2)NC(=O)CSC[C@@H](C(=O)NCC(N)=O)NC1=O [Example 551] ({CH2CO}-[Cha][Bip(4'-COOH)][Bip(4'-NH)](Indazole3carbonyl(1-CH2COOH))[Sar][2Pal]D[dArg(ω-(3-HO-benzyl))]VPV[Ala(imidazol-2-yl)]LCG-NH2; thioether N-13) | < 50 nM

same assay, conditions: HEK-Blue-CD40L cells, NF-kB-driven secreted alkaline phosphatase reporter; TNFα 0.5 ng/ml; 18 h; read-out: TNF induced HEK-Blue assay IC50 value

Row | Structure (SMILES) | IC50
4 | CC[C@H](C)[C@@H]1NC(=O)[C@@H](CCCNC(=N)N)NC(=O)[C@H](CC(=O)O)NC(=O)[C@H](Cc2cnc[nH]2)NC(=O)CN(C)C(=O)[C@H](Cc2ccc(-c3ccc(NC(=O)c4csc(-c5ccncc5)n4)cc3)cc2)NC(=O)[C@H](Cc2ccc(-c3ccc(C(=O)O)cc3)cc2)NC(=O)[C@H](CC2CCCCC2)NC(=O)CSC[C@@H](C(=O)NCC(N)=O)NC(=O)[C@H](CC(C)C)NC(=O)[C@H](Cc2ncc[nH]2)NC(=O)[C@H](C(C)C)NC(=O)[C@@H]2Cc3ccccc3CN2C1=O [Example 411] ({CH2CO}-[Cha][Bip(4'-COOH)][Bip(4'-NH)](X20)[Sar]HD[dR]I[Tic]V[Ala(imidazol-2-yl)]LCG-NH2; thioether N-13) | 50 to 200 nM
5 | CC(C)C[C@@H]1NC(=O)[C@H](Cc2cccs2)NC(=O)[C@H](C(C)C)NC(=O)[C@@H]2CCCN2C(=O)[C@H](C(C)C)NC(=O)[C@@H](CCCNC(=N)N)NC(=O)[C@H](CC(=O)O)NC(=O)[C@H](Cc2ccccn2)NC(=O)CN(C)C(=O)[C@H](Cc2ccc(-c3ccc(NC(=O)c4ccc(CC(=O)O)cc4)cc3)cc2)NC(=O)[C@H](Cc2ccc(-c3ccc(C(=O)O)cc3)cc2)NC(=O)[C@H](CN2CCOCC2)NC(=O)CSC[C@@H](C(=O)NCC(N)=O)NC1=O [Example 611] ({CH2CO}-[Ala(morpholin-4-yl)][Bip(4'-COOH)][Bip(4'-NHCO-C6H4-4-CH2COOH)][Sar][2Pal]D[dR]VPV[2Thi]LCG-NH2; thioether N-13) | < 50 nM
6 | CC[C@H](C)[C@@H]1NC(=O)[C@@H](CCCNC(=N)N)NC(=O)[C@H](CC(=O)O)NC(=O)[C@H](Cc2cnc[nH]2)NC(=O)CN(C)C(=O)[C@H](Cc2ccc(-c3ccc(C(=O)NC)cc3)cc2)NC(=O)[C@H](Cc2ccc(-c3ccccc3)cc2)NC(=O)[C@H](CC2CCCCC2)NC(=O)CSC[C@@H](C(=O)NCC(N)=O)NC(=O)[C@H](CC(C)C)NC(=O)[C@H](Cc2cnc[nH]2)NC(=O)[C@H](C(C)C)NC(=O)[C@@H]2CCCN2C1=O [Example 396] ({CH2CO}-[Cha][Bip][Bip(4'-CONHMe)][Sar]HD[dR]IPVHLCG-NH2; thioether N-13) | < 50 nM
7 | CC(C)C[C@@H]1NC(=O)[C@H](Cc2cccc(C(N)=O)c2)NC(=O)[C@H](C(C)C)NC(=O)[C@@H]2CCCN2C(=O)[C@H](C(C)C)NC(=O)[C@@H](CCCNC(=N)NCc2ccccc2)NC(=O)[C@H](CC(=O)O)NC(=O)[C@H](Cc2ccc(O)cc2)NC(=O)CN(C)C(=O)[C@H](Cc2ccc(-c3ccc(NC(=O)c4cccc(CC(=O)O)c4)cc3)cc2)NC(=O)[C@H](Cc2ccc(-c3ccccc3)cc2)NC(=O)[C@H](CN2CCOCC2)NC(=O)CSC[C@@H](C(=O)NCC(N)=O)NC1=O [Example 603] ({CH2CO}-[Ala(morpholin-4-yl)][Bip][Bip(4'-NHCO-C6H4-3-CH2COOH)][Sar]YD[dArg(ω-Bn)]VPV[Phe(3-CONH2)]LCG-NH2; thioether N-13) | < 50 nM
8 | CC(C)C[C@@H]1NC(=O)[C@H](CCCNC(=N)N)NC(=O)[C@H](C(C)C)NC(=O)[C@@H]2CCCN2C(=O)[C@H](Cc2ccc(N)cc2)NC(=O)[C@H](CCCNC(=N)N)NC(=O)[C@H](CC(=O)O)NC(=O)[C@@H]2CCCN2C(=O)CN(C)C(=O)[C@H](Cc2ccc(-c3ccccc3)cc2)NC(=O)[C@H](Cc2ccc(-c3ccccc3)cc2)NC(=O)[C@H](C(C)(C)O)NC(=O)CSC[C@@H](C(=O)NCC(N)=O)NC1=O [Example 61] ({CH2CO}-[Val(3-OH)][Bip][Bip][Sar]PDR[Phe(4-NH2)]PVRLCG-NH2; thioether N-13) | 200 to 2000 nM
9 | CC(C)C[C@@H]1NC(=O)[C@H](CCCNC(=N)N)NC(=O)[C@H](C(C)C)NC(=O)[C@@H]2CCCN2C(=O)[C@H](C(C)C)NC(=O)[C@H](CCCNC(=N)N)NC(=O)[C@H](CC(=O)O)NC(=O)[C@@H]2CCCN2C(=O)CN(C)C(=O)[C@H](Cc2ccc(-c3ccccc3)cc2)NC(=O)[C@H](Cc2ccc(-c3ccccc3)cc2)NC(=O)[C@H](CCCc2ccccc2)NC(=O)CSC[C@@H](C(=O)NCC(N)=O)NC1=O [Example 12] ({CH2CO}-[hhPhe][Bip][Bip][Sar]PDRVPVRLCG-NH2; thioether N-13) | 200 to 2000 nM
10 | CC(C)C[C@@H]1NC(=O)[C@H](Cc2ccc(O)cc2)NC(=O)[C@H](C(C)C)NC(=O)[C@@H]2CCCN2C(=O)[C@H](C(C)C)NC(=O)[C@@H](CCCNC(=N)N)NC(=O)[C@H](CC(=O)O)NC(=O)[C@@H]2CCCN2C(=O)CN(C)C(=O)[C@H](Cc2ccc(-c3ccccc3)cc2)NC(=O)[C@H](Cc2ccc(-c3ccccc3)cc2)NC(=O)[C@H](CN2CCOCC2)NC(=O)CSC[C@@H](C(=O)NCC(N)=O)NC1=O [Example 77] ({CH2CO}-[Ala(morpholin-4-yl)][Bip][Bip][Sar]PD[dR]VPVYLCG-NH2; thioether N-13) | 200 to 2000 nM
11 | CC[C@H](C)[C@@H]1NC(=O)[C@@H](CCCNC(=N)N)NC(=O)[C@H](CC(=O)O)NC(=O)[C@H](Cc2ccccc2)NC(=O)CN(C)C(=O)[C@H](Cc2ccc(-c3ccc(NC(C)=O)cc3)cc2)NC(=O)[C@H](Cc2ccc(-c3ccc(C(=O)O)cc3)cc2)NC(=O)[C@H](C(C)(C)C)NC(=O)CSC[C@@H](C(=O)NCC(N)=O)NC(=O)[C@H](CC(C)C)NC(=O)[C@H](CCCNC(=N)N)NC(=O)[C@H](C2CCCCC2)NC(=O)[C@@H]2CCCN2C1=O [Example 268] ({CH2CO}-[Tle][Bip(4'-COOH)][Bip(4'-NHAc)][Sar]FD[dR]IP[Chg]RLCG-NH2; thioether N-13) | < 50 nM
12 | CC(=O)Nc1ccc(-c2ccc(C[C@@H]3NC(=O)[C@H](Cc4ccc(-c5ccc(C(=O)O)cc5)cc4)NC(=O)[C@H](CN4CCOCC4)NC(=O)CSC[C@@H](C(=O)NCC(N)=O)NC(=O)[C@H](CC(C)C)NC(=O)[C@H](Cc4ccc(O)cc4)NC(=O)[C@H](C(C)C)NC(=O)[C@@H]4CCCN4C(=O)[C@H](C(C)C)NC(=O)[C@@H](CCCNC(=N)N)NC(=O)[C@H](CC(=O)O)NC(=O)[C@@H]4CCCN4C(=O)CN(C)C3=O)cc2)cc1 [Example 236] ({CH2CO}-[Ala(morpholin-4-yl)][Bip(4'-COOH)][Bip(4'-NHAc)][Sar]PD[dR]VPVYLCG-NH2; thioether N-13) | 200 to 2000 nM
13 | CC(C)C[C@@H]1NC(=O)[C@H](CCCNC(=N)N)NC(=O)[C@H](C2CCCCC2)NC(=O)[C@@H]2CCCN2C(=O)[C@H](C(C)C)NC(=O)[C@H](CCCNC(=N)N)NC(=O)[C@H](CC(=O)O)NC(=O)[C@@H]2CCCN2C(=O)CN(C)C(=O)[C@H](Cc2ccc(-c3ccccc3)cc2)NC(=O)[C@H](Cc2ccc(-c3ccccc3)cc2)NC(=O)[C@H](CN2CCOCC2)NC(=O)CSC[C@@H](C(=O)NCC(N)=O)NC1=O [Example 207] ({CH2CO}-[Ala(morpholin-4-yl)][Bip][Bip][Sar]PDRVP[Chg]RLCG-NH2; thioether N-13) | 200 to 2000 nM
14 | CC(C)C[C@@H]1NC(=O)[C@H](CCCNC(=N)N)NC(=O)[C@H](C(C)C)NC(=O)[C@@H]2CCCN2C(=O)[C@H](C(C)C)NC(=O)[C@@H](CCCNC(=N)N)NC(=O)[C@H](CC(=O)O)NC(=O)[C@@H]2CCCN2C(=O)CN(C)C(=O)[C@H](Cc2ccc(-c3ccccc3)cc2)NC(=O)[C@H](Cc2ccc(-c3ccccc3)cc2)NC(=O)[C@H](CN2CCOCC2)NC(=O)CSC[C@@H](C(=O)NCC(N)=O)NC1=O [Example 202] ({CH2CO}-[Ala(morpholin-4-yl)][Bip][Bip][Sar]PD[dR]VPVRLCG-NH2; thioether N-13) | 200 to 2000 nM
15 | CC(C)C[C@@H]1NC(=O)[C@H](Cc2ccc(O)cc2)NC(=O)[C@H](C(C)C)NC(=O)[C@@H]2CCCN2C(=O)[C@H](C(C)C)NC(=O)[C@@H](CCCNC(=N)NCc2ccccc2)NC(=O)[C@H](CC(=O)O)NC(=O)[C@@H]2CCCN2C(=O)CN(C)C(=O)[C@H](Cc2ccc(-c3ccc(NC(=O)c4ccc(CC(=O)O)cc4)cc3)cc2)NC(=O)[C@H](Cc2ccc(-c3ccc(C(=O)O)cc3)cc2)NC(=O)[C@H](CC2CCCCC2)NC(=O)CSC[C@@H](C(=O)NCC(N)=O)NC1=O [Example 582] ({CH2CO}-[Cha][Bip(4'-COOH)][Bip(4'-NHCO-C6H4-4-CH2COOH)][Sar]PD[dArg(ω-Bn)]VPVYLCG-NH2; thioether N-13) | < 50 nM
